Our source for the concentration values is ChEMBL document CHEMBL5143707, “Benzodiazepine Derivatives as Potent Vasopressin V2 Receptor Antagonists for the Treatment of Autosomal Dominant Kidney Disease” (J Med Chem, 2022).

Series [1] can be described thus: in vivo. The note with it: C57BL/6, mouse, kidney, sc, 5 mg/kg.
Series [2] can be described thus: in vivo. The note with it: C57BL/6, mouse, kidney, sc, 5 mg/kg. The source holds these as a separate data set.

For the molecule `Cc1ccccc1C(=O)Nc1ccc(C(=O)N2CCCC(O)c3cc(Cl)ccc32)c(C)c1` (configuration not stated) [TOLVAPTAN], the concentration at 0.5 h in series [1] was 6100 ng/g. Besides, the concentration at 1 h in series [2] was found to be 3900 ng/g.
